Test system: 253994-281-T-J1-PDC KRAS-mutant spheroids with HUVEC/MSC, viability
Test: Anticancer human tumor 253994-281-T-J1-PDC patient-derived colorectal carcinoma cell line growth inhibition [KRAS2]
Details: for viability, T/C: stronger effect = lower value
In short: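 Combination screen of spheroid viability in tumor-cell co-cultures with endothelial (HUVEC) and mesenchymal stem cell stroma. Each agent was tested in half-log dilutions, topping at clinical Cmax or at 10 microM without a known Cmax.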

[1] = curve of first compound, second compound 0.1 µM
[2] = curve of first compound, second compound 0.316 µM
[3] = curve of first compound, second compound 1 µM
[4] = curve of first compound, second compound 3.16 µM
[5] = curve of first compound, second compound 10 µM
[6] = second compound 0.1 µM, first compound 0.01 µM
[7] = second compound 0.1 µM, first compound 0.0316 µM
[8] = second compound 0.1 µM, first compound 0.1 µM
[9] = second compound 0.1 µM, first compound 0.316 µM
[10] = second compound 0.1 µM, first compound 1 µM
[11] = second compound 0.316 µM, first compound 0.01 µM
[12] = second compound 0.316 µM, first compound 0.0316 µM
[13] = second compound 0.316 µM, first compound 0.1 µM
[14] = second compound 0.316 µM, first compound 0.316 µM
[15] = second compound 0.316 µM, first compound 1 µM
[16] = second compound 1 µM, first compound 0.01 µM
[17] = second compound 1 µM, first compound 0.0316 µM
[18] = second compound 1 µM, first compound 0.1 µM
[19] = second compound 1 µM, first compound 0.316 µM
[20] = second compound 1 µM, first compound 1 µM
[21] = second compound 3.16 µM, first compound 0.01 µM
[22] = second compound 3.16 µM, first compound 0.0316 µM
[23] = second compound 3.16 µM, first compound 0.1 µM
[24] = second compound 3.16 µM, first compound 0.316 µM
[25] = second compound 3.16 µM, first compound 1 µM
[26] = second compound 10 µM, first compound 0.0316 µM
[27] = second compound 10 µM, first compound 0.1 µM
[28] = second compound 10 µM, first compound 0.316 µM
[29] = second compound 10 µM, first compound 1 µM
[30] = second compound 0.1 µM, first compound 3.16 µM
[31] = second compound 0.1 µM, first compound 10 µM
[32] = second compound 0.316 µM, first compound 3.16 µM
[33] = second compound 0.316 µM, first compound 10 µM
[34] = second compound 1 µM, first compound 3.16 µM
[35] = second compound 1 µM, first compound 10 µM
[36] = second compound 3.16 µM, first compound 3.16 µM
[37] = second compound 3.16 µM, first compound 10 µM
[38] = second compound 10 µM, first compound 3.16 µM
[39] = second compound 10 µM, first compound 10 µM
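Note: spheroids exposed to agents for seven days before readout.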
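Throughout, for viability, T/C: percent of DMSO vehicle control viability.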

Structure (SMILES)	IC50 [1] [nM]	IC50 [2] [nM]	IC50 [3] [nM]	IC50 [4] [nM]	viability, T/C [7] [%]	viability, T/C [8] [%]	viability, T/C [9] [%]	viability, T/C [10] [%]	viability, T/C [12] [%]	viability, T/C [13] [%]	viability, T/C [14] [%]	viability, T/C [15] [%]	viability, T/C [17] [%]	viability, T/C [18] [%]	viability, T/C [19] [%]	viability, T/C [20] [%]	viability, T/C [22] [%]	viability, T/C [23] [%]	viability, T/C [24] [%]	viability, T/C [25] [%]	further results
CCN1CCN(Cc2ccc(Nc3ncc(F)c(-c4cc(F)c5nc(C)n(C(C)C)c5c4)n3)nc2)CC1 + COc1cc2nc(C)nc(NC(C)c3cc(N)cc(C(F)(F)F)c3)c2cc1OC1CCOC1	390	317	321	236	83	62.9	55.3	38.9	74.3	64.4	51.3	33.7	74.7	61.8	53.3	35.5	70.8	57.6	53.3	29.4	IC50 [5]: 162 nM; viability, T/C (second compound 0.1 µM, first compound 0.00316 µM): 102%; viability, T/C [6]: 93.3%; viability, T/C (second compound 0.316 µM, first compound 0.00316 µM): 79.6%; viability, T/C [11]: 86.8%; viability, T/C (second compound 1 µM, first compound 0.00316 µM): 80.4%; viability, T/C [16]: 90.5%; viability, T/C (second compound 3.16 µM, first compound 0.00316 µM): 90.2%; viability, T/C [21]: 73.9%; viability, T/C (second compound 10 µM, first compound 0.00316 µM): 78%; viability, T/C (second compound 10 µM, first compound 0.01 µM): 86.3%; viability, T/C [26]: 72.7%; viability, T/C [27]: 53.8%; viability, T/C [28]: 40.6%; viability, T/C [29]: 8.08%
CCNC(=O)CC1N=C(c2ccc(Cl)cc2)c2cc(OC)ccc2-n2c(C)nnc21 (configuration not stated)	–	–	–	–	–	–	–	–	–	–	–	–	–	–	–	–	–	–	–	–	viability, T/C (compound 0.0316 µM): 105% [middle of 5 runs]; viability, T/C (compound 0.1 µM): 103% [middle of 5 runs]; viability, T/C (compound 0.316 µM): 95.6% [middle of 5 runs]; viability, T/C (compound 1 µM): 96.3% [middle of 5 runs]; viability, T/C (compound 3.16 µM): 97.5% [middle of 5 runs]; viability, T/C (compound 10 µM): 85.7% [middle of 5 runs]; IC50 (curve of compound): > 10000 nM
COC(=O)c1ccc2c(C(=Nc3ccc(N(C)C(=O)CN4CCN(C)CC4)cc3)c3ccccc3)c(O)[nH]c2c1 + CC1OCC2(CCN(c3cnc(Sc4ccnc(N)c4Cl)c(N)n3)CC2)C1N	> 10000	3480	1460	156	97.8	87.2	82.7	85.3	82.7	67	68.9	85.2	53.8	50.9	62.1	51.7	56.1	52	42.9	40.7	IC50 [5]: < 31.6 nM; viability, T/C [30]: 81.8%; viability, T/C [31]: 70.7%; viability, T/C [32]: 53.2%; viability, T/C [33]: 15%; viability, T/C [34]: 43.3%; viability, T/C [35]: 17.8%; viability, T/C [36]: 26.8%; viability, T/C [37]: 1.64%; viability, T/C [26]: 35%; viability, T/C [27]: 35%; viability, T/C [28]: 31.4%; viability, T/C [29]: 20%; viability, T/C [38]: 4.21%; viability, T/C [39]: 0.83%
CC(C)NCC(C(=O)N1CCN(c2ncnc3c2C(C)CC3O)CC1)c1ccc(Cl)cc1 (configuration not stated) + CNCc1ccccc1-c1csc(C(C)Nc2nc(C)nc3cc(OC)c(OC)cc23)c1	> 10000	> 10000	> 10000	< 31.6	110	109	99.6	111	110	96	98.2	113	121	108	88.1	103	38.1	29.8	24	34.8	IC50 [5]: < 31.6 nM; viability, T/C [30]: 94.7%; viability, T/C [31]: 105%; viability, T/C [32]: 107%; viability, T/C [33]: 101%; viability, T/C [34]: 95.2%; viability, T/C [35]: 99.4%; viability, T/C [36]: 24.1%; viability, T/C [37]: 40.1%; viability, T/C [26]: 0.17%; viability, T/C [27]: 0.14%; viability, T/C [28]: 0.14%; viability, T/C [29]: 0.16%; viability, T/C [38]: 0.13%; viability, T/C [39]: 0.27%
CC(=O)OC12COC1CC(O)C1(C)C(=O)C(O)C3=C(C)C(OC(=O)C(O)C(NC(=O)OC(C)(C)C)c4ccccc4)CC(O)(C(OC(=O)c4ccccc4)C21)C3(C)C (configuration not stated) + C=CC(=O)N1CCN(c2nc(OCC3CCCN3C)nc3c2CCN(c2cccc4cccc(C)c24)C3)CC1CC#N	28	27.6	27.6	27.3	46.6	31.7	40	27.6	44.5	33.5	29	27.2	46.3	28.9	26	28.1	45.7	31.4	27.5	29.3	IC50 (curve of first compound, second compound 0.0316 µM): 32.8 nM; viability, T/C (second compound 0.0316 µM, first compound 0.01 µM): 96.4%; viability, T/C (second compound 0.0316 µM, first compound 0.0316 µM): 50.4%; viability, T/C (second compound 0.0316 µM, first compound 0.1 µM): 33.6%; viability, T/C (second compound 0.0316 µM, first compound 0.316 µM): 28.1%; viability, T/C (second compound 0.0316 µM, first compound 1 µM): 28%; viability, T/C (second compound 0.0316 µM, first compound 3.16 µM): 33.7%; viability, T/C [6]: 80.4%; viability, T/C [30]: 28%; viability, T/C [11]: 85.4%; viability, T/C [32]: 26.4%; viability, T/C [16]: 77.7%; viability, T/C [34]: 29.5%; viability, T/C [21]: 79.3%; viability, T/C [36]: 28.1%
